Measurements from patent publication US20090325805A1, “Cationic surfactant based adjuvant systems for some herbicides that increase pH, herbicide solubility and performance” (priority 2004, published 2009).

Columns and labels:
Format in all cases: in vivo
[1] = test system: Downy Brome (Bromus tectorum); assay: Herbicide efficacy (percent control) on downy brome with differing spray adjuvants (Table 2); design: concentration or dose not given beside the values; conditions: for Downy Brome % Control 21 DAT: 21 days after treatment; for Downy Brome % Control 68 DAT: 68 days after treatment
Description: (§1) This effect has been seen with both wild oat (Avena fatua) Table 1 and downy brome (Bromus tectorum) Table 2. The increase in activity has been seen with different formulation of tallow amine cat-ionic surfactant and a pH increasing additive (Table 3). [table]

Wild Oat (Avena fatua) = assay: Post-emergence herbicide efficacy (percent control) on wild oats with differing spray adjuvants; conditions: Sulfosulfuron 0.66 oz/Acre; for Wild Oat % Control 14 DAT: 14 days after treatment; for Wild Oat % Control 28 DAT: 28 days after treatment
Description: This invention pertains to the unexpected increase in activity seen when sulfosulfuron was applied with a cat-ionic surfactant plus a pH adjustor that increased the pH to a pH of 9-10.5 (Table 1). As opposed to the increase in activity that was predicted to happen when applied with an oil based or non-ionic surfactant with a pH adjustor as taught by Nalewaja et. al. This effect has been seen with both wild oat (Avena fatua) Table 1 and downy brome (Bromus tectorum) Table 2. The increase in activity has been seen with different formulation of tallow amine cat-ionic surfactant and a pH increasing additive (Table 3). [table]

[2] = test system: Downy Brome (Bromus tectorum); assay: Sulfosulfuron efficacy (percent control) on downy brome with differing tallow amine adjuvant formulations (Table 3); design: concentration or dose not given beside the values; conditions: for Downy Brome % Control 17 DAT: 17 days after treatment; for Downy Brome % Control 87 DAT: 87 days after treatment
Description: as §1

[3] = adjuvant AQ117 (tallow amine plus aqua ammonia)
[4] = adjuvant R-11 (non-ionic surfactant)
[5] = adjuvant AQ118 (tallow amine plus aqua ammonia)
[6] = adjuvant Quad 7 (crop oil plus nitrogen fertilizer)
[7] = adjuvant AQ103 (tallow amine plus aqua ammonia)
[8] = adjuvant AQ104 (tallow amine plus aqua ammonia)

Row | Compound | Downy Brome % Control 21 DAT [1, 3] [%] | Downy Brome % Control 68 DAT [1, 3] [%] | Downy Brome % Control 21 DAT [1, 4] [%] | Downy Brome % Control 68 DAT [1, 4] [%] | Wild Oat % Control 14 DAT (Wild Oat (Avena fatua); [5]) [%] | Wild Oat % Control 28 DAT (Wild Oat (Avena fatua); [5]) [%] | Wild Oat % Control 14 DAT (Wild Oat (Avena fatua); [6]) [%] | Wild Oat % Control 28 DAT (Wild Oat (Avena fatua); [6]) [%] | Downy Brome % Control 17 DAT [2, 7] [%] | Downy Brome % Control 87 DAT [2, 7] [%] | Downy Brome % Control 17 DAT [2, 8] [%] | Downy Brome % Control 87 DAT [2, 8] [%] | Downy Brome % Control 17 DAT [2, 4] [%] | Downy Brome % Control 87 DAT [2, 4] [%]
1 | CCCOc1nn(C(=O)[N-]S(=O)(=O)c2ccccc2C(=O)OC)c(=O)n1C.[Na+] [Propoxycarbazone, Propoxycarbazone-sodium] | 73 | 90 | 52 | 67 | – | – | – | – | – | – | – | – | – | –
2 | CCS(=O)(=O)c1nc2ccccn2c1S(=O)(=O)NC(=O)Nc1nc(OC)cc(OC)n1 [Sulfosulfuron] | 78 | 97 | 52 | 62 | 75 | 98 | 48 | 62 | 30 | 92 | 30 | 90 | 5 | 77
